SMILES strings stand for the structures. Activity calls are given as the source filed them. No cut-off for these calls is given here.

This assay has as its system Pyrrhocoris apterus. The assay is described as follows: Juvenilizing effect assessed as inhibition of metamorphosis per individual in red firebug by drinking assay. Type of assay: functional.
As for `CCOC(=O)/C=C(\C)COc1ccc(C[C@@H]2CCCC[C@@H]2O[C@@H]2O[C@H](CO)[C@H](O)[C@H](O)[C@H]2O)cc1`, the ID50 is 0.11 µg.

In the case of `CCOC(=O)/C=C(\C)COc1ccc(C[C@H]2CCCC[C@@H]2O[C@@H]2O[C@H](CO)[C@@H](O)[C@H](O)[C@H]2O)cc1`, the ID50 is 1.3 µg.

With `CCOC(=O)/C=C(/C)COc1ccc(C[C@@H]2CCCC[C@@H]2O[C@@H]2O[C@H](CO)[C@H](O)[C@H](O)[C@H]2O)cc1`, the ID50 is 2.3 µg.

As to `CCOC(=O)/C=C(/C)COc1ccc(C[C@H]2CCCC[C@@H]2O)cc1` (stereo in doubt; Z-2a), the result was inactive.

With `CCOC(=O)/C=C(/C)COc1ccc(C[C@H]2CCCC[C@@H]2O[C@@H]2O[C@H](CO)[C@H](O)[C@H](O)[C@H]2O)cc1`, the ID50 is 3 µg.

Turning to `CCOC(=O)/C=C(/C)COc1ccc(C[C@@H]2CCCC[C@@H]2O[C@@H]2O[C@H](CO)[C@@H](O)[C@H](O)[C@H]2O)cc1`, the ID50 stood at 1.1 µg.

In the case of `CCOC(=O)/C=C(/C)COc1ccc(C[C@H]2CCCC[C@@H]2O)cc1` (stereo in doubt; Z-2b), the outcome was inactive.

For the compound `CCOC(=O)/C=C(\C)COc1ccc(C[C@@H]2CCCC[C@@H]2O[C@@H]2O[C@H](CO)[C@@H](O)[C@H](O)[C@H]2O)cc1`, the ID50 came out at 0.0021 µg.

Turning to `CCOC(=O)/C=C(\C)COc1ccc(C[C@H]2CCCC[C@@H]2O)cc1`, the ID50 was 0.32 µg.

For the compound `CCOC(=O)/C=C(/C)COc1ccc(C[C@@H]2CCCC[C@@H]2O)cc1`, the ID50 came out at 18 µg.

Turning to `CCOC(=O)/C=C(/C)COc1ccc(C[C@H]2CCCC[C@@H]2O[C@@H]2O[C@H](CO)[C@@H](O)[C@H](O)[C@H]2O)cc1` (stereo in doubt; Z-14b), the result was inactive.

Take `CCOC(=O)/C=C(/C)COc1ccc(C[C@H]2CCCC[C@@H]2O[C@@H]2O[C@H](CO)[C@@H](O)[C@H](O)[C@H]2O)cc1` (stereo in doubt; Z-14a): the result was inactive.

As to `CCOC(=O)/C=C(\C)COc1ccc(C[C@H]2CCCC[C@@H]2O[C@@H]2O[C@H](CO)[C@H](O)[C@H](O)[C@H]2O)cc1`, the ID50 is 1.9 µg.

Turning to `CCOC(=O)/C=C(\C)COc1ccc(C[C@@H]2CCCC[C@@H]2O)cc1`, the ID50 was 0.05 µg.

The record behind these values is ChEMBL document CHEMBL1139830, “Glycosidic juvenogens: derivatives bearing alpha,beta-unsaturated ester functionalities” (2007).
